Values joined by “and” are separate entries in the source; they are usually repeats but may differ in a detail not shown here. Equal entries are not always repeated. Where two headings read alike, the source gives them in different places.

Data on five compounds can be found in US20240277658A1, “NLRP3 ACTIVATORS FOR USE IN THE TREATMENT OF INFECTIOUS DISEASES OR CANCER BY ACTIVATING NLRP3 INFLAMMASOME” (ALBERT-LUDWIGS-UNIVERSITÄT FREIBURG, priority 2020, published 2024).

One data set deals with TLR7/TLR8. To be noted: background statement; cited from earlier work.
For data set [1], the target named is T1, NLRP3 inflammasome (Mus musculus, UniProt Q8R4B8).
T1 construct: endogenous in cells; host or cells: primary mouse bone marrow-derived dendritic cells (BMDCs), LPS-primed
T1 sequence (Q8R4B8 whole entry): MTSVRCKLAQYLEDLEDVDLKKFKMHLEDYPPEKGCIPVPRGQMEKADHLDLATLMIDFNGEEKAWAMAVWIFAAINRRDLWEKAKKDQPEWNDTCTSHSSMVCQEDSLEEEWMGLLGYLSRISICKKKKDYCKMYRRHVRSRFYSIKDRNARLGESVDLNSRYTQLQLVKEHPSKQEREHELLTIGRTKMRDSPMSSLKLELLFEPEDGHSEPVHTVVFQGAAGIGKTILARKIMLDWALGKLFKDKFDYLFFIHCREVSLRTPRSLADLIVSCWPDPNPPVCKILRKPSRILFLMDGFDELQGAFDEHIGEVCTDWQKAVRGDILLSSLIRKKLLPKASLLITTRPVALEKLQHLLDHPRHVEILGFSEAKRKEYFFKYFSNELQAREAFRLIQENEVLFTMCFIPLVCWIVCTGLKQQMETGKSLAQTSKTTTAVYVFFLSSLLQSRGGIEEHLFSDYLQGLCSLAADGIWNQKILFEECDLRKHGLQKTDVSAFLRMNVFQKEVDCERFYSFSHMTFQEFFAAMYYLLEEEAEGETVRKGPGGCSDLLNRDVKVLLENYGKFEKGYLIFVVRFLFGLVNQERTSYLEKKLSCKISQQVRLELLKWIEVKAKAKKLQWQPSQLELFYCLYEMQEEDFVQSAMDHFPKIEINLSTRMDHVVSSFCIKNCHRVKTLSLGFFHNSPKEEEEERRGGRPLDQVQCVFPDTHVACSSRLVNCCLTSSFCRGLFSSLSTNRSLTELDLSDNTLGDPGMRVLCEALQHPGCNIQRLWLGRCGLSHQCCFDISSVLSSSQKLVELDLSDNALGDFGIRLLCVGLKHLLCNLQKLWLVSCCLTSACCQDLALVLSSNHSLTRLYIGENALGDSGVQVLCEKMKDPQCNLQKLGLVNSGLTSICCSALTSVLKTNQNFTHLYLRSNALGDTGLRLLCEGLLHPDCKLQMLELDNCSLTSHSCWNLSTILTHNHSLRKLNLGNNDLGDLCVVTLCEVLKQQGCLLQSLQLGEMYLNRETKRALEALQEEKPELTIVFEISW
Description: IL-1β release from LPS-primed BMDCs (ELISA) as readout of NLRP3 inflammasome activation. It counts as cell-based. In a few lines: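 NLRP3 inflammasome activation was read out as IL-1β released into the supernatant, measured by ELISA. Murine BMDCs were primed with LPS (50 ng ml^−1, 3 hours), then incubated with compounds for 3 hours, with each condition run in three technical replicates. Nigericin at 5 μM acted as the positive control activator, and IL-1β release was also expressed as a percentage of that control.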
Background: An ELISA detects its analyte on a solid surface through an enzyme-linked reagent.

For a further data set, the system named is BMDCs. The experiment in a line: LDH release (lytic cell death, pyroptosis) from LPS-primed BMDCs. It counts as cell-based, mouse. Conditions: for Average (% positive control): LDH release; for cytotoxicity at 50 µM / cytotoxicity at 25 µM / cytotoxicity at 100 µM / cytotoxicity at 20 µM / cytotoxicity at 40 µM / cytotoxicity at 80 µM: Mus musculus, BMDC. In a few lines: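 Mouse BMDCs (7-9 days differentiated, GM-CSF) primed with 50 ng ml^−1 E. coli K12 LPS for 3 hours, then exposed 3 hours to compounds (50 μM unless indicated) or activators (nigericin 5 μM; R837, CL097 100 μM). Lytic death measured as LDH release by colorimetric assay, triplicate wells.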
For orientation: LDH leaks from cells whose membrane has failed.

In data set [2] the test system is mitochondrial respiration. To be noted: Groß et al., Immunity 2016; cited from earlier work.
In another data set the test system is NLRP3. Description: Inflammasome stimulation (IL-1β, LDH release) in BMDCs from NLRP3 knockout or ASC knockout mice. It counts as cell-based, mouse. To be noted: IL-1β and LDH release. As to the method: (§1) For canonical inflammasome activation BMDCs after 7-9 days of differentiation were harvested and counted with a Neubauer Chamber (Hecht Assistant) and the concentration was set to 1 Mio cells ml^−1. 100 μl cell suspension per well were seeded in 96-well plates. The cells were primed with 50 ng ml^−1 E. coli K12 ultra-pure LPS for 3 hours and subsequently treated with canonical inflammasome activators or experimental compounds for 3 hours if not indicated differently (incubation time FIG. 4D, 5, 7, 8, 11, 13-18: 3 h, FIG. 12: 4 h). Concentrations of the stimuli were as follows if not indicated differently: 5 μM nigericin, 100 μM imiquimod (also known as R837), 100 μM CL097, 100 μM R848, […] poly(dA:dT), 300 μg ml^−1 MSU. If an inhibitor was used before stimuli treatment, the inhibitor was added after 2.5 hours of priming and it was incubated for 30 minutes before inflammasome activation. Inhibitors were used as follows: 3 μM MCC950, 45 mM KCl, 30 μM ebselen (2-Phenyl-1,2-benzoselenazol-3-one), 5 μM cytochalasin D (see FIGS. 8, 11, 12 and 17).
(§2) All inflammasome stimulations were performed in three technical replicates for each condition. Lytic cell death was determined via LDH release (see FIGS. 8, 13-16 and 18), cytokines quantified in cell-free supernatants via ELISA (see FIGS. 4D, 7-9, 11-19) and cell lysates and supernatants analyzed via immunoblotting (see FIGS. 5A and 5B) as previously described in detail (Gross, Olaf, 2012 “Measuring the inflammasome”, Methods in molecular biology, Clifton, N.J., 844, pp. 199-222. Schneider, Katharina S.; Thomas, Christina J.; Groß, Olaf, 2013, “Inflammasome activation and inhibition in primary murine bone marrow-derived cells, and assays for IL-1α, IL-1β, and caspase-1”, Methods in molecular biology, Clifton, N.J., 1040, pp. 117-135).

Data set [3] has as its target T1, NLRP3 inflammasome. The experiment in a line: Inflammasome stimulation of BMDCs after pre-incubation with inhibitors (MCC950, KCl, ebselen, cytochalasin D). It counts as cell-based. Conditions: for dependence of NLRP3 inflammasome activation on potassium efflux from the cell: 50 mM extracellular KCl, FIGS. 11 and 17. On the procedure:
as §1, with “Inhibitors were used as follows: 3 μM MCC950, 45 mM KCl, 30 μM ebselen (2-Phenyl-1,2-benzoselenazol-3-one), 5 μM cytochalasin D (see FIGS. 8, 11, 12 and 17).” left out
as §2

Where [4] appears, read: IL-1β release, 100 μM, positive control nigericin 5 μM.
Where [5] appears, read: single replicates, 100 μM, LPS-primed BMDCs.
Setting [6] is: 100 μM, positive control nigericin 5 μM.

With `CCOCc1nc2c([nH]1)c(N)nc1ccccc12` [CL097, reference compound], in the data set with TLR7/TLR8, the “activation of toll-like receptor-7 (TLR7) and/or TLR8” value is “activate”. Further, the “Average IL-1β” value on NLRP3 inflammasome [1] (100 μM, LPS-primed BMDCs) was 8.570 ng/mL. For the same compound, the “Average (% positive control)” value came out at 119.560 % positive control at NLRP3 inflammasome [1] (setting [4]) and 93.083 % positive control in the data set on BMDCs (setting [6]). For the same compound, on NLRP3 inflammasome [1] (setting [5]), the “IL-1β” value was 7.355 ng/mL and 8.020 ng/mL and 8.660 ng/mL and 8.522 ng/mL and 9.540 ng/mL and 9.324 ng/mL. The “Average LDH release (% of max.)” value with BMDCs (100 μM, LPS-primed BMDCs) is recorded as 68.096 % of max. Further, in the data set with BMDCs (setting [5]), the “LDH release (% of max.)” value was 56.511 % of max. and 69.145 % of max. and 62.611 % of max. and 76.051 % of max. and 68.018 % of max. and 76.242 % of max. In data set [2], the “inhibition of cellular respiration (mitochondrial electron transport chain)” value is given as “inhibit cellular respiration”.

`COc1ccccc1NC(=O)NCc1nc(-c2ccc(C(F)(F)F)cc2)no1` [EN21, 1-(2-methoxyphenyl)-3-((3-(4-(trifluoromethyl)phenyl)-1,2,4-oxadiazol-5-yl)methyl)urea]: the “EC50 for induction of IL-1β, times lower than for imiquimod and CL097” value at NLRP3 inflammasome [1] (BMDCs, FIG. 4D) turned out to be 10 times. Moreover, the “Average (% positive control)” value at NLRP3 inflammasome [1] (IL-1β release, compound 50 μM, positive control nigericin 5 μM) was found to be 108.566 % positive control; in the data set with BMDCs (compound 50 μM, positive control nigericin 5 μM), 68.766 % positive control. Further, the “Average IL-1β” value at NLRP3 inflammasome [1] (compound 50 μM, LPS-primed BMDCs) is 7.782 ng/mL. Besides, on NLRP3 inflammasome [1] (single replicates, compound 50 μM, LPS-primed BMDCs), the “IL-1β” value is 8.582 ng/mL and 7.428 ng/mL and 8.023 ng/mL and 6.613 ng/mL and 8.352 ng/mL and 7.696 ng/mL. Also, the cytotoxicity at 50 µM in the data set with BMDCs (compound 50 μM, LPS-primed BMDCs, read-out: Average LDH release (% of max.)) was 50.3%. In addition, in the data set with NLRP3, the “characteristics of inflammasome activation in cells isolated from NLRP3 knockout mice” value (“characteristics” below) was “do not occur”. Besides, the “dependence of NLRP3 inflammasome activation on potassium efflux from the cell” value at NLRP3 inflammasome [3] is “independently of potassium efflux”. Also, the “effect of the endocytosis inhibitor cytochalasin D on NLRP3 activation” value on NLRP3 inflammasome [3] (LPS-primed wild-type BMDCs, FIG. 12) is “has no effect”. Further, the “effect of the NLRP3-specific inhibitor MCC950 on inflammasome activation by the compound” value at NLRP3 inflammasome [3] (wild-type BMDCs, compound 50 μM, FIG. 8) is reported as “completely suppresses”.

Regarding `O=C(Nc1ccc2ncccc2c1)Nc1ccc2ncccc2c1` [EN-A, 1,3-di(quinolin-6-yl)urea], the “Average IL-1β” value on NLRP3 inflammasome [1] (section 1.2, 25 μM) was 4.696 ng/mL; at NLRP3 inflammasome [1] (section 1.2, 50 μM) it was 5.026 ng/mL; on NLRP3 inflammasome [1] (section 1.2, 100 μM), 5.084 ng/mL. The “Average (% positive control)” value was determined as 93.430 % positive control on NLRP3 inflammasome [1] (section 1.2, IL-1β release, 25 μM, positive control EN22 25 μM); 100.007 % positive control on NLRP3 inflammasome [1] (section 1.2, IL-1β release, 50 μM, positive control EN22 25 μM); 101.159 % positive control on NLRP3 inflammasome [1] (section 1.2, IL-1β release, 100 μM, positive control EN22 25 μM); 110.581 % positive control in the data set with BMDCs (section 1.2, 25 μM, positive control EN22 25 μM); 108.112 % positive control with BMDCs (section 1.2, 50 μM, positive control EN22 25 μM); 110.157 % positive control in the data set with BMDCs (section 1.2, 100 μM, positive control EN22 25 μM). In addition, the “IL-1β” value on NLRP3 inflammasome [1] (section 1.2, single replicates, 25 μM) is 5.256 ng/mL and 4.576 ng/mL and 4.256 ng/mL; on NLRP3 inflammasome [1] (section 1.2, single replicates, 50 μM) it was 4.819 ng/mL and 5.538 ng/mL and 4.722 ng/mL; at NLRP3 inflammasome [1] (section 1.2, single replicates, 100 μM), 5.256 ng/mL and 5.328 ng/mL and 4.669 ng/mL. In addition, the cytotoxicity at 25 µM in the data set on BMDCs (section 1.2, 25 μM, read-out: Average LDH release (% of max.)) is 33.1%; in the data set on BMDCs (section 1.2, single replicates, 25 μM, read-out: LDH release (% of max.)), 33.7%. The cytotoxicity at 50 µM worked out at 32.4% in the data set on BMDCs (section 1.2, 50 μM, read-out: Average LDH release (% of max.)) and 32.1% in the data set on BMDCs (section 1.2, single replicates, 50 μM, read-out: LDH release (% of max.)). In addition, the cytotoxicity at 100 µM in the data set on BMDCs (section 1.2, 100 μM, read-out: Average LDH release (% of max.)) was 33%; in the data set on BMDCs (section 1.2, single replicates, 100 μM, read-out: LDH release (% of max.)) it was 34.8%. The “characteristics” value in the data set with NLRP3 is “do not occur”. Moreover, at NLRP3 inflammasome [3], the “dependence of NLRP3 inflammasome activation on potassium efflux from the cell” value was “independently of potassium efflux”.

Take `COc1ccc(NC(=O)Nc2ccc3ncccc3c2)cc1` [JB010, 1-(4-methoxyphenyl)-3-(quinolin-6-yl)urea]: the “Average IL-1β” value at NLRP3 inflammasome [1] (20 μM) was determined as 2.404 ng/mL; at NLRP3 inflammasome [1] (40 μM), 2.655 ng/mL; at NLRP3 inflammasome [1] (80 μM), 3.966 ng/mL. Besides, the “IL-1β” value at NLRP3 inflammasome [1] (20 μM, individual replicate values) was 2.200 ng/mL and 3.078 ng/mL and 1.934 ng/mL; on NLRP3 inflammasome [1] (40 μM, individual replicate values), 2.727 ng/mL and 2.742 ng/mL and 2.498 ng/mL; at NLRP3 inflammasome [1] (80 μM, individual replicate values) it was 2.757 ng/mL and 3.613 ng/mL and 5.527 ng/mL. Also, the “Average (% positive control)” value worked out at 122.814 % positive control at NLRP3 inflammasome [1] (IL-1β, 20 μM, positive control EN22); 135.661 % positive control at NLRP3 inflammasome [1] (IL-1β, 40 μM, positive control EN22); 202.590 % positive control at NLRP3 inflammasome [1] (IL-1β, 80 μM, positive control EN22); 44.689 % positive control with BMDCs (20 μM, positive control EN22 20 μM); 62.649 % positive control in the data set on BMDCs (40 μM, positive control EN22 20 μM); 77.427 % positive control in the data set with BMDCs (80 μM, positive control EN22 20 μM). Moreover, the cytotoxicity at 20 µM in the data set on BMDCs (20 μM, individual replicate values, read-out: LDH release (% of max.)) amounted to 24.4%; in the data set with BMDCs (20 μM, read-out: Average LDH release (% of max.)), 23.8%. Further, the cytotoxicity at 40 µM with BMDCs (40 μM, individual replicate values, read-out: LDH release (% of max.)) came out at 31.4%; in the data set on BMDCs (40 μM, read-out: Average LDH release (% of max.)), 33.4%. For the same compound, the cytotoxicity at 80 µM in the data set with BMDCs (80 μM, individual replicate values, read-out: LDH release (% of max.)) came out at 38.6%; in the data set with BMDCs (80 μM, read-out: Average LDH release (% of max.)), 41.2%. Besides, the “characteristics” value in the data set with NLRP3 is given as “do not occur”.

In the case of `CC(C)Cn1cnc2c(N)nc3ccccc3c21` [imiquimod, reference compound], the “activation of toll-like receptor-7 (TLR7) and/or TLR8” value with TLR7/TLR8 was “activate”. Also, the “Average IL-1β” value at NLRP3 inflammasome [1] (100 μM, LPS-primed BMDCs) was 2.376 ng/mL. In addition, the results for the “Average (% positive control)” value on NLRP3 inflammasome [1] (setting [4]) and in the data set with BMDCs (setting [6]) were 33.144 % positive control and 35.494 % positive control, respectively. Also, the “IL-1β” value at NLRP3 inflammasome [1] (single replicates, 100 μM, LPS-primed BMDCs, listed as R837) was 5.472 ng/mL and 4.151 ng/mL and 1.552 ng/mL and 1.212 ng/mL and 0.958 ng/mL and 0.911 ng/mL. Further, the cytotoxicity at 100 µM in the data set on BMDCs (100 μM, LPS-primed BMDCs, read-out: Average LDH release (% of max.)) turned out to be 26%. Besides, the “inhibition of cellular respiration (mitochondrial electron transport chain)” value in data set [2] is reported as “inhibit cellular respiration”.
